Data published in patent publication US20050203163A1, “Farnesyl transferase inhibitors in combination with HMG CoA reductase inhibitors for the treatment of cancer” (Pfizer Inc, priority 1997, published 2005).

System: K-Ras 4B
Test: Prenylation of K-ras 4B in intact cells (immunoblot, densitometric scanning)
Format: cell-based
Settings: 5 μM hydrolysed lovastatin alone (Compound 1 at 0); NIH-3T3 transfectant overexpressing mutant K-Ras 4B; 18 hours at 37° C.

CC[C@H](C)C(=O)O[C@H]1C[C@@H](C)C=C2C=C[C@H](C)[C@H](CC[C@@H]3C[C@@H](O)CC(=O)O3)[C@H]21 [Lovastatin, lovastatin]
% Inhibition OF K-Ras 4B Prenylation: 23%
